Literature values, collected in US10245278B2 (priority 2013, dated 2019).
Like-named read-outs stand apart in the source and are kept apart here.

Columns and labels:
[1] = heart transplant patients; 6 grams per day for several weeks
[2] = male subjects; 8 grams in a single administration one or two hours before relations
[3] = angina pectoris or congestive heart failure; oral, at least 6 grams per day for 6 weeks
[4] = slightly hypertensive persons; oral 12 grams per day in three administrations for 4 weeks
[5] = intermittent claudication; oral 8 grams twice per day for 3 weeks
[6] = menopausal women; oral 14 grams per day for 6 months
[7] = even at doses of 9 or 10 grams twice per day

Compound | ability to withstand physical effort [1] | moderate sexual dysfunction [2] | ability to withstand physical effort [3] | arterial pressure [4] | walking range [5] | muscular force [6] | side effects [7]
L-arginine aspartate | same result | significantly improved their disorder |  |  |  |  | 
N=C(N)NCCC[C@H](N)C(=O)O [arginine, L-arginine] |  |  | improves the ability to withstand physical effort | reduced the arterial pressure significantly | enabled their walking range to be increased | resulted in increasing muscular force | very few side effects
